From patent US6924251B1, “Substituted benzoylcyclohexandiones” (Bayer Aktiengesellschaft, priority 1998, dated 2005) come the findings set out here.

A short description of series [1]: logP determination by HPLC (reversed-phase C18), EEC Directive 79/831 Annex V.A8. The following applies: for chromatographic logP: reversed-phase C18 HPLC column; for logP: Table 3, compounds of formula (IV); labelled a): acidic range, 0.1% aqueous phosphoric acid, acetonitrile, linear gradient 10% to 90% acetonitrile, 43° C.
Another series has as its system Abutilon. Kind of series: Pre-emergence test/greenhouse. In kind it is in vivo. The settings on record: after three weeks. On the procedure:
(§1) • Solvent: 5 parts by weight of acetone • Emulsifier: 1 part by weight of alkylaryl polyglycol ether
(§2) To produce a suitable preparation of active compound, 1 part by weight of active compound is mixed with the stated amount of solvent, the stated amount of emulsifier is added and the concentrate is diluted with water to the desired concentration.
(§3) Seeds of the test plants are sown in normal soil. After approximately 24 hours, the soil is sprayed with the preparation of active compound such that the particular amount of active compound desired is applied per unit area. The concentration of the spray liquor is chosen so that the particular amount of active compound desired is applied in 1000 liters of water per hectare.
(§4) After three weeks, the degree of damage to the plants is assesssed in % damage in comparison to the development of the untreated control.

A further series deals with Cyperus. Description: Pre-emergence test/greenhouse. In kind it is in vivo. The following applies: after three weeks. The protocol:
as §1, §2, §3, §4

Series [2] deals with weeds. Kind of series: Pre-emergence test, activity against weeds. Type of series: in vivo. The protocol: as §1, §2, §3, §4
Series [3] deals with weeds. Description: Post-emergence test, activity against weeds. Type of series: in vivo. On the procedure:
as §1, §2
(§5) Test plants which have a height of 5-15 cm are sprayed with the preparation of active compound in such a way that the particular amounts of active compound desired are applied per unit area. The concentration of the spray liquor is chosen so that the particular amounts of active compound desired are applied in 1000 1 of water/ha.
as §4

Series [4] relates to Maize. Description: Post emergence test/greenhouse. Type of series: in vivo. The settings on record: after three weeks. The protocol: as §1, §2, §5, §4
Another series concerns Amaranthus. Description: Post emergence test/greenhouse. The settings on record: after three weeks. In kind it is in vivo. The protocol: as §1, §2, §5, §4
The subject of the next series is Sinapis. Description: Post emergence test/greenhouse. In kind it is in vivo. The settings on record: after three weeks. The protocol:
as §1, §2, §5, §4

For series [5], the system named is Maize. Description: Pre-emergence test/greenhouse. In kind it is in vivo. The following applies: 500 g ai./ha, after three weeks. On the procedure: as §1, §2, §3, §4

By melting point is commonly meant the temperature of the solid-liquid transition. What is called chromatographic logP is lipophilicity estimated from chromatographic retention. A high value points to higher lipophilicity. For `Cn1c(C(F)(F)F)nn(-c2ccc(C(=O)C3C(=O)CCCC3=O)c(Cl)c2)c1=O` [compound 2, 2-[4-(2,6-dioxocyclohexylcarbonyl)-3-chloro-phenyl]4-methyl-5-trifluoromethyl-2,4-dihydro-3H-1,2,4-triazol-3′-one], the melting point came out at 182 °C. Moreover, the chromatographic logP in series [1] (pH 2) was determined as 3.13.
On to `CCOC(=O)c1ccc(Cl)cc1Cn1nc(C(F)(F)F)n(C)c1=O` [IV-43], for which, in series [1], the logP entry is on record as “logP = 3.31^a)”.
The same measure, in the same setting: the same measure for `CCOC(=O)c1ccc(Br)cc1CN1CCOC1=O` [IV-72]: “logP = 2.36^a)”.
As to `CCOC(=O)c1ccc(C(F)(F)F)cc1Cn1cc(C(F)(F)F)c(=O)[nH]c1=O` [IV-90], the logP result in [1] is listed as “logP = 2.93^a)”.
Same read-out and setting: the same measure for `CCOC(=O)c1ccc(F)cc1Cn1nc(OCC)n(C2CC2)c1=O` [IV-98]: “logP = 2.89^a)”.
The same measure, in the same setting: under `CCOC(=O)c1ccc(C(F)(F)F)cc1Cn1cnn(C)c1=O` [IV-74] stands “logP = 2.68^a)”.
The same measure, in the same setting: the same measure for `CCOC(=O)c1ccc(C(F)(F)F)cc1Cn1nc(SC)n(C)c1=O` [IV-49]: “logP = 3.02^a)”; for `CCOC(=O)c1ccc(Br)cc1Cn1nc(C(F)(F)F)n(C)c1=O` [IV-35]: “logP = 3.40^a)”.
`COC(=O)c1ccc(Cl)c(Cn2nc(C(F)(F)F)n(C)c2=O)c1Cl` [IV-2, 4-methyl-5-trifluoromethyl-2-(2,6-dichloro-3-methoxycarbonyl-benzyl)-2,4-dihydro-3H-1.2.4-triazol-3-one] came in with a melting point of 109 °C.
Regarding `CCOC(=O)c1ccc(Cl)cc1Cn1nc(CC)n(OCC)c1=O` [IV-44], the logP result in series [1] is on record as “logP = 3.14^a)”.
As for `CCOc1nn(Cc2cc(C(F)(F)F)ccc2C(=O)C2C(=O)CCCC2=O)c(=O)n1C` [compound 1, 5-ethoxy-4-methyl-2-[2-(2,6-dioxo-cyclohexyl-carbonyl)-5-trifluoromethyl-benzyl]-2,4-dihydro-3H-1,2,4-triazol-3-one], the “% damage Abutilon” value in the series with Abutilon (1000 g ai./ha) was 100%. The “% damage Cyperus” value in the series on Cyperus (1000 g ai./ha) is listed as 100%. In series [1] (pH 2), this compound showed a chromatographic logP of 2.7. Also, the activity against weeds result with weeds [2] is recorded as “strong activity”.
On to `CCOC(=O)c1ccc(C(F)(F)F)cc1CN1C(=O)c2ccccc2C1=O` [IV-87], for which the logP result in series [1] was “logP = 3.80^a)”.
The same measure, in the same setting: under `COC(=O)c1ccc(Cl)c(Cn2nc3n(c2=O)CCCC3)c1Cl` [IV-14] stands “m.p.: 178 °C logP = 1.86^a)”; under `COC(=O)c1ccc(Cl)c(Cn2nc(OCC(F)(F)F)n(C)c2=O)c1Cl` [IV-8], “m.p.: 129 °C logP = 2.72^a)”.
Same read-out and setting: the same measure for `CCOC(=O)c1ccc(C(F)(F)F)cc1Cn1c(=O)n(C)c(=O)n1C` [IV-113]: “logP = 2.58^a)”; for `COC(=O)c1ccc(Cl)c(Cn2nc(OC(C)C)n(C3CC3)c2=O)c1Cl` [IV-17]: “m.p.: 56 °C logP = 3.08^a)”.
`CCOc1nn(Cc2cc(Br)ccc2C(=O)C2C(=O)CCCC2=O)c(=O)n1C` [compound 15]: in the series with weeds [3], the activity against weeds result is listed as “strong activity”. Moreover, the “% damage Maize” value in the series on Maize [4] (1000 g ai./ha) is 0%. In the series on Amaranthus (1000 g ai./ha), the “% damage Amaranthus” value came to 90%. Further, the “% damage Sinapis” value in the series on Sinapis (1000 g ai./ha) was determined as 80%.
Regarding `CCCOc1nn(Cc2cc(Br)ccc2C(=O)OCC)c(=O)n1C` [IV-66], the logP result in series [1] is listed as “logP = 3.38^a)”.
Still for that read-out and setting: under `COC(=O)c1ccc(C(F)(F)F)cc1Cn1nc(SC)n(C)c1=O` [IV-118] stands “logP = 2.65^a)”.
On the same count and under the same terms, under `CCOC(=O)c1ccc(C(F)(F)F)cc1CN1C(=O)c2ccccc2S1(=O)=O` [IV-86] stands “logP = 3.67^a)”.
Same read-out and setting: the same measure for `COC(=O)c1ccc(Cl)c(Cn2nc(SC)n(C)c2=O)c1Cl` [IV-3]: “m.p.: 229 °C logP = 2.27^a)”; for `CCOC(=O)c1ccc([N+](=O)[O-])cc1Cn1nc(OCC)n(C2CC2)c1=O` [IV-45]: “logP = 2.42^a)”; for `COC(=O)c1ccc(Cl)c(Cn2nc(OCC(F)(F)F)n(C3CC3)c2=O)c1Cl` [IV-18]: “m.p.: 102 °C logP = 3.05^a)”.
Consider `CCOC(=O)c1ccc(Br)cc1Cn1nc(OC(C)C)n(C)c1=O` [IV-65], for which, in series [1], the logP entry was “logP = 3.34^a)”.
Turning to `CCOC(=O)c1ccc(C(F)(F)F)cc1Cn1nc(OC(C)C)n(C)c1=O` [IV-70], the logP result in series [1] is listed as “logP = 3.51^a)”.
Regarding `COC(=O)c1ccc(Cl)c(CN2CCCN(C)C2=O)c1Cl` [IV-24], the logP result in series [1] is “logP = 2.07^a)”.
Still for that read-out and setting: the same measure for `CCOC(=O)c1ccc(Br)cc1Cn1nc(CC)n(OCC)c1=O` [IV-34]: “logP = 3.24^a)”; for `COC(=O)c1ccc(S(C)(=O)=O)cc1Cn1nc(SC)n(C)c1=O` [IV-114]: “logP = 1.53^a)”.
Still for that read-out and setting: under `CCOC(=O)c1ccc([N+](=O)[O-])cc1Cn1nc(SC)n(C)c1=O` [IV-46] stands “logP = 2.82^a)”.
Turning to `COC(=O)c1ccc(Cl)c(Cn2nc(OC)n(C)c2=O)c1Cl` [IV-6], the logP entry in series [1] was “m.p.: 121 °C logP = 2.04^a)”.
As to `CCOn1c(CC)nn(Cc2c(Cl)ccc(C(=O)OC)c2Cl)c1=O` [IV-22], the logP entry in series [1] is “m.p.: 85 °C logP = 2.58^a)”.
The same measure, in the same setting: the same measure for `COC(=O)c1ccc(Cl)c(Cn2nc(C3CC3)n(C3CC3)c2=O)c1Cl` [IV-5]: “m.p.: 127 °C logP = 2.55^a)”.
As to `CCOc1nn(Cc2cc(C(F)(F)F)ccc2C(=O)OC)c(=O)n1C` [IV-117], in series [1], the logP result is reported as “logP = 2.74^a)”.
Same read-out and setting: the same measure for `CCOC(=O)c1ccc(F)cc1Cn1nc(N(C)C)n(C)c1=O` [IV-94]: “logP = 2.21^a)”; for `CCOC(=O)c1ccc(F)cc1Cn1nc(OC)n(C2CC2)c1=O` [IV-97]: “logP = 2.50^a)”; for `CCOC(=O)c1ccc(S(C)(=O)=O)cc1CN1C(=O)CCC1=O` [IV-33]: “logP = 1.53^a)”.
Turning to `Cn1c(C(F)(F)F)nn(Cc2c(Cl)ccc(C(=O)O)c2Cl)c1=O` [III-3, 4-methyl-5-trifluoromethyl-2-(2,6-dichloro-3-carboxy-benzyl)-2,4-dihydro-3H-1,2,4-triazol-3-one], the melting point was determined as 207 °C.
Take `CCCOc1nn(Cc2cc(C(F)(F)F)ccc2C(=O)OCC)c(=O)n1C` [IV-71]: the logP result in [1] is recorded as “logP = 3.54^a)”.
Turning to `CCOn1c(CC)nn(Cc2cc(Br)ccc2C(=O)C2C(=O)CCCC2=O)c1=O` [compound 10], the activity against weeds result in the series with weeds [3] and in the series on weeds [2] was “strong activity” each time. Moreover, the results for the “% damage Maize” value in the series with Maize [5] and in the series with Maize [4] (500 g ai./ha) were 0% and 20%, respectively. Also, the “% damage Abutilon” value in the series with Abutilon (500 g ai./ha) worked out at 90%. Further, in the series with Cyperus (500 g ai./ha), the “% damage Cyperus” value is recorded as 100%. Also, in series [1], the chromatographic logP is 2.68. Moreover, the “% damage Amaranthus” value in the series with Amaranthus (500 g ai./ha) was found to be 95%. Also, in the series with Sinapis (500 g ai./ha), the “% damage Sinapis” value worked out at 80%.
`CCOC(=O)c1ccc(Cl)cc1Cn1nc(OCC)n(C2CC2)c1=O` [IV-42]: the logP result in series [1] was “logP = 3.23^a)”.
The same measure, in the same setting: the same measure for `CCOC(=O)c1ccc(F)cc1Cn1nc(SC)n(C)c1=O` [IV-37]: “logP = 2.45^a)”; for `CCOC(=O)c1ccc(Br)cc1CN1C(=O)CCC1=O` [IV-60]: “logP = 2.44^a)”.
On the same count and under the same terms, the same measure for `COC(=O)c1ccc(Cl)c(Cn2nc(C)n(C3CC3)c2=O)c1Cl` [IV-20]: “m.p.: 135 °C logP = 1.97^a)”; for `CCOC(=O)c1ccc(C(F)(F)F)cc1Cn1nc(COC)n(C)c1=O` [IV-78]: “logP = 2.60^a)”; for `CCOc1nn(Cc2cc(S(C)(=O)=O)ccc2C(=O)OC)c(=O)n1C` [IV-115]: “logP = 1.59^a)”.
Regarding `CCOC(=O)c1ccc(C(F)(F)F)cc1Cn1nc(N(C)C)n(C)c1=O` [IV-85], the logP result in series [1] is listed as “logP = 2.79^a)”.
For the compound `COC(=O)c1ccc(Cl)c(Cn2nc(N(C)C)n(C3CC3)c2=O)c1Cl` [IV-21], the logP result in series [1] was “m.p.: 143 °C logP = 2.42^a)”.
Still for that read-out and setting: under `CCOC(=O)c1ccc(S(C)(=O)=O)cc1Cn1nc(SC)n(C)c1=O` [IV-89] stands “logP = 1.82^a)”.
On the same count and under the same terms, under `CCOC(=O)c1ccc(Br)cc1Cn1nc(OCC)n(C)c1=O` [IV-58] stands “logP = 2.95^a)”.
